{"source": "patent US20150313228A1", "about": "“SYNERGISTIC HERBICIDAL COMBINATIONS AND METHODS OF USE” (priority 2012, published 2015)", "key": {"soybean varieties": {"test_system": "soybean varieties", "assay": "Metribuzin sensitivity or tolerance phenotype of soybean varieties (Table S-3)", "type": "in vivo, Glycine max", "source_text": "To observe the presence or absence of the “metribuzin sensitivity” or metribuzin tolerance phenotypes, soybean plants are typically exposed in early to mid-vegetative growth stages to one or more doses of metribuzin. Typical doses of metribuzin that can elicit a metribuzin sensitivity phenotype can range from about a 1-fold label application rate of a commercially available metribuzin formulation (i.e. about 0.25 pounds per acre) to about a 3-fold label application rate (i.e. about 0.75 pounds per acre) of a commercially available metribuzin formulation. Commercially available formulations containing metribuzin that can be used include, but are not limited to, Authority®MTZ (FMC Corporation, Philadelphia, Pa., USA); Boundary (Syngenta, Wilmington, Del., USA); Canopy® or Lexone® (Dupont, Wilmington, Del., USA); Sencor® (Bayer Crop Science, Research Triangle Park, N.C., USA); or TriCor® DF (United Phosphorus, Inc., King of Prussia, Pa., USA. In certain embodiments, the commercially available metribuzin formulation used is TriCor® 75DF. In certain embodiments, doses of metribuzin that can elicit a metribuzin sensitivity phenotype can range from about a 1 fold application rate of about 0.25 pounds per acre to about a three fold application rate of 0.75 pounds per acre.\nThe metribuzin sensitivity phenotype can be observed approximately one week to three weeks after herbicide application in certain soybean varieties that are sensitive to metribuzin. Metribuzin is typically applied during pre and post-emergent vegetative growth stages. In certain embodiments of these methods, metribuzin can be applied to the soil about 2 days prior to soybean seed planting and activated by irrigation of the planted seed to score for the presence of the metribuzin sensitivity phenotype. Genotypes provided herein are especially useful for providing metribuzin tolerance to plants exposed to metribuzin by a pre-emergence soil drench. As discussed herein, the vegetative stages of soybean are as follows: VE (emergence), VC (cotyledon stage), V1 (first trifoliate leaf), V2 (second trifoliate leaf), V3 (third trifoliate leaf), V(n) (nth trifoliate leaf), and V6 (flowering will soon start). As discussed herein, the reproductive stages of soybean are as follows: R1 (beginning bloom), R2 (full bloom), R3 (beginning pod), R4 (full pod), R5 (beginning seed), R6 (full seed), R7 (beginning maturity) and R8 (full maturity). A description of the soybean vegetative and reproductive stages can be found on the World Wide Web (internet) at ag.ndsu.edu/pubs/plantsci/rowcrops/a1174/a1174w.htm (North Dakota State University publication A-1174, June 1999, Reviewed and Reprinted August 2004).\nA rating scale that evaluates the degree of metribuzin sensitivity can also be employed to identify “metribuzin sensitive” and “metribuzin tolerant” plants. An exemplary and non-limiting scale for evaluating the Metribuzin sensitivity phenotype is as follows, where a low number corresponds to a “metribuzin tolerance” phenotype and the a high number correlates to a “metribuzin sensitivity” phenotype:\nA non-limiting and exemplary list of soybean plants that comprise genomic regions associated with either a metribuzin sensitivity or a metribuzin tolerance phenotype are provided herewith in Table S-3."}, "soybeans": {"test_system": "soybeans", "assay": "Field screening for metribuzin tolerance in soybeans (Example 11, 13)", "type": "in vivo, Glycine max", "settings": "soybean lines containing a heterozygous (CT) allele of NGMAX006079502", "experimental": "Field screening for metribuzin tolerance in soybeans was performed at the Monsanto Company Soybean Research Station near Mount Olive, N.C. in 2010 and 2011. Metribuzin application rate was 0.5 lbs/acre metribuzin (Sencor®, Bayer Crop Science, Research Triangle Park, N.C., U.S.A.) one day prior to planting. Rows were planted as single six foot row plots with 9 seed per foot. Multiple repetitions were grown per row. Within 24 hours after planting, the trial was irrigated with 0.5 inches of water to help incorporate and activate the herbicide. Injury ratings were taken fourteen to twenty one (14 to 21) days after planting using a 1 to 9 scale (for example, 1=no damage, 9=completely killed). After identifying the target region through the mapping population described in Example 12, a molecular marker was identified. An association study was done using a soybean molecular marker database. Over 200 commercial and breeding lines were characterized for metribuzin tolerance in field and greenhouse screening, as described in Example 11."}}, "data": [{"smiles": "CSc1nnc(C(C)(C)C)c(=O)n1N", "note": "[Metribuzin, 4-amino-6-(1,1-dimethylethyl)-3-(methylthio)-1,2,4-triazin-5(4H)-one]", "values": [{"measurement": "METRIBUZIN PHENOTYPE", "setting": "soybean varieties; soybean variety AG4531", "value": "Tolerant"}, {"measurement": "METRIBUZIN PHENOTYPE", "setting": "soybean varieties; soybean variety AG4730", "value": "Tolerant"}, {"measurement": "METRIBUZIN PHENOTYPE", "setting": "soybean varieties; soybean variety AG6130", "value": "Sensitive"}, {"measurement": "METRIBUZIN PHENOTYPE", "setting": "soybean varieties; soybean variety AG6730", "value": "Sensitive"}, {"measurement": "METRIBUZIN PHENOTYPE", "setting": "soybean varieties; soybean variety AG6931", "value": "Tolerant"}, {"measurement": "METRIBUZIN PHENOTYPE", "setting": "soybean varieties; soybean variety BURLISON (from TRACY)", "value": "Sensitive"}, {"measurement": "METRIBUZIN PHENOTYPE", "setting": "soybean varieties; soybean variety DASSEL (from PAGODA)", "value": "Sensitive"}, {"measurement": "METRIBUZIN PHENOTYPE", "setting": "soybean varieties; soybean variety H7550", "value": "Sensitive"}, {"measurement": "METRIBUZIN PHENOTYPE", "setting": "soybean varieties; soybean variety PAGODA", "value": "Sensitive"}, {"measurement": "METRIBUZIN PHENOTYPE", "setting": "soybean varieties; soybean variety TRACY", "value": "Sensitive"}, {"measurement": "METRIBUZIN PHENOTYPE", "setting": "soybean varieties; soybean variety Tracy-M", "value": "Tolerant"}, {"measurement": "metribuzin phenotype in the field", "setting": "soybeans", "value": "mixed phenotype of both tolerance and sensitivity"}]}]}
